Drawing on ChEMBL document CHEMBL5029147 (J Med Chem, 2021), this text covers Drug uptake, Activity and Drug metabolism for one molecule.

Data set [1] can be described thus: Drug uptake in human MCF7 cells at 0.2 to 1 uM measured after 24 hrs by HPLC-MS/MS-MRM analysis. Format: ADME, cell-based. Particulars: mcf7, 24 h, dose 0.2-1 µM.
For data set [2], the system named is MCF7. As to the kind of experiment: Effect on BCRP expression in human MCF7 cells at 0.5 to 1 uM incubated for 24 hrs by western blot analysis. Format: functional, cell-based. Particulars: dose 0.5-1 µM. (In general: Immunoblotting shows a protein as a band on a membrane.)
Data set [3] can be described thus: Drug metabolism in human MCF7 cells assessed as intracellular hydroxy-PTX metabolite formation at 1 uM measured after 24 hrs by LC-MS/MS-MRM analysis. The class given is ADME, cell-based. Conditions: mcf7, 24 h.
Data set [4] deals with HepG2. As to the kind of experiment: Cytotoxicity against human HepG2 cells assessed as reduction in cell viability incubated for 24 hrs in presence of chloramphenicol by MTT assay. The class given is functional, cell-based. For orientation: Tetrazolium assays rely on reduction of a dye to a coloured formazan, in cell work by metabolically active cells.
Data set [5] can be described thus: Drug metabolism in human MCF7 cells assessed as intracellular hydroxy-PTX metabolite formation at 0.2 to 1 uM measured after 24 hrs by HPLC-MS/MS-MRM analysis. The class given is ADME, cell-based. Particulars: mcf7, 24 h, dose 0.2-1 µM.
In data set [6] the test system is MDA-MB-231. The data set is described as follows: Cytotoxicity against human MDA-MB-231 cells assessed as reduction in cell viability incubated for 24 hrs in presence of chloramphenicol by MTT assay. The class given is functional, cell-based.
Data set [7] in a line: Drug uptake in human MCF7 cells at 1 uM measured after 24 hrs in presence of 50 to 100 uM photoCORM delivered CO by LC-MS/MS-MRM analysis. Format: ADME, cell-based. Particulars: mcf7, 24 h.
For data set [8], the system named is MDA-MB-231. As to the kind of experiment: Cytotoxicity against human MDA-MB-231 cells assessed as reduction in cell viability at < 0.5 uM incubated for 24 hrs in presence of 20 uM chloramphenicol by MTT assay. The class given is functional, cell-based. Conditions: dose microM <0.5, time 24.0 hrs.
Data set [9] can be described thus: Drug uptake in human MCF7 cells at 1 uM measured after 24 hrs in presence of 100 uM photoCORM delivered CO by LC-MS/MS-MRM analysis. The class given is ADME, cell-based. Particulars: mcf7, 24 h.
Data set [10] is described as follows: Drug uptake in human HepG2 cells at 1 to 2 uM measured after 24 hrs in presence of photoCORM delivered CO by LC-MS/MS-MRM analysis. Format: ADME, cell-based. Conditions: hepg2, 24 h, dose 1-2 µM.
The nature of data set [11]: Drug uptake in human MCF7 cells at 1 uM measured after 24 hrs in presence of 20 uM chloramphenicol by LC-MS/MS-MRM analysis. The class given is ADME, cell-based. Conditions: mcf7, 24 h.
Data set [12] is described as follows: Drug metabolism in human MDA-MB-231 cells assessed as intracellular hydroxy-PTX metabolite formation measured after 24 hrs by LC-MS/MS-MRM analysis. Conditions: mda-mb-231, 24 h. Format: ADME, cell-based.
For data set [13], the system named is MCF7. The data set is described as follows: Effect on CYP2C8 expression in human MCF7 cells at 0.5 to 1 uM incubated for 24 hrs by western blot analysis. Format: functional, cell-based. Conditions: dose 0.5-1 µM.
The nature of data set [14]: Drug metabolism in human MCF7 cells assessed as decline in intracellular hydroxy-PTX metabolite level at 1 uM measured after 24 hrs in presence of 50 to 100 uM photoCORM delivered CO by LC-MS/MS-MRM analysis. Format: ADME, cell-based. Particulars: mcf7, 24 h.

Activity calls are given as the source filed them. The rule behind the calls is not given here.

Regarding `CC(=O)O[C@H]1C(=O)[C@@]2(C)[C@H]([C@H](OC(=O)c3ccccc3)[C@]3(O)C[C@H](OC(=O)[C@H](O)[C@@H](NC(=O)c4ccccc4)c4ccccc4)C(C)=C1C3(C)C)[C@]1(OC(C)=O)CO[C@@H]1C[C@@H]2O` [PACLITAXEL], the Drug uptake result is reported as “Active” in [1]; “Not Active” in data set [7]; “Not Active” in data set [9]; “Active” in data set [10]; “Not Active” in [11]. In addition, the outcome in data set [2] and in [13] was inactive. Moreover, the Drug metabolism in data set [3] is 1 fmol/µg; in data set [5], “Metabolite_Detected”; in data set [12] it was “Metabolite_Notdetected”; in data set [14], “Metabolite_Notdetected”. Also, the result in [4], in data set [6] and in [8] was Active.
